Measurements: ChEMBL document CHEMBL4130605, “7α,20-Epoxy-ent-kaurane Diterpenoids from the Aerial Parts of Isodon pharicus” (J Nat Prod, 2018)

Columns and labels:
Assay type in all cases: functional, cell-based
MCF7 = assay: Cytotoxicity against human MCF7 cells after 48 hrs by MTS assay; details: MCF7, 48 h
A549 = assay: Cytotoxicity against human A549 cells after 48 hrs by MTS assay; details: A549, 48 h
SMMC-7721 = assay: Cytotoxicity against human SMMC7721 cells after 48 hrs by MTS assay; details: SMMC-7721, 48 h
HL-60 = assay: Cytotoxicity against human HL60 cells after 48 hrs by MTS assay; details: HL-60, 48 h
SW480 = assay: Cytotoxicity against human SW480 cells after 48 hrs by MTS assay; details: SW480, 48 h

Row | Structure (SMILES) | IC50 (MCF7) [µM] | IC50 (A549) [µM] | IC50 (SMMC-7721) [µM] | IC50 (HL-60) [µM] | IC50 (SW480) [µM]
1 | COC[C@H]1C(=O)[C@]23[C@H](O)[C@H]1[C@@H](O)C[C@H]2[C@]12CCC[C@@](C)(COC(C)=O)[C@H]1[C@H](O)[C@]3(O)OC2 (relative stereo) | > 10 | > 10 | > 10 | > 10 | > 10
2 | COC[C@H]1C(=O)[C@]23C[C@@H]1CC[C@H]2[C@@]12CO[C@]3(O)[C@@H](O)[C@@H]1C(C)(C)CC[C@@H]2O | 13.8 | 14.3 | 14.6 | 17.2 | 7.83
3 | COC[C@@H]1C(=O)[C@]23[C@H](O)[C@H]1CC[C@H]2[C@@]12CO[C@@]3(O)[C@@H](O)[C@@H]1[C@](C)(CO)CC[C@@H]2O (relative stereo) | > 10 | > 10 | > 10 | > 10 | > 10
4 | COC[C@H]1C(=O)[C@]23C[C@H]1CC[C@H]2[C@@]12CO[C@@]3(O)[C@@H](O)[C@@H]1[C@](C)(COC(C)=O)CC[C@@H]2O (mixture of isomers) | 16 | 14.5 | 12.3 | 18 | 9.68
5 | C=C1C(=O)[C@]23[C@H](O)[C@H]1CC[C@H]2[C@]12CC[C@@H](OC(C)=O)[C@@](C)(CO)[C@H]1[C@H](O)[C@]3(O)OC2 | > 10 | > 10 | > 10 | > 10 | > 10
6 | C=C1C(=O)[C@]23C[C@H]1CC[C@H]2[C@@]12CO[C@@]3(O)[C@@H](O)[C@@H]1[C@](C)(COC(C)=O)CC[C@@H]2OC(C)=O | 2.96 | 3.61 | 2.03 | 2.43 | 1.01
7 | C=C1[C@@H](O)[C@]23[C@H](O)[C@H]1C[C@H](OC(C)=O)[C@H]2[C@]12CCC[C@@](C)(COC(C)=O)[C@H]1[C@H](OC(C)=O)[C@]3(O)O[C@@H]2O (relative stereo) | 3.86 | 6.23 | 2.69 | 5.53 | 3.17
8 | C=C1[C@@H](O)[C@]23[C@H](O)[C@H]1CC[C@H]2[C@@]12CO[C@@]3(O)[C@@H](O)[C@@H]1[C@](C)(COC(C)=O)CC[C@@H]2O | > 10 | > 10 | > 10 | > 10 | > 10
9 | C=C1C(=O)[C@]23[C@H](O)[C@H]1CC[C@H]2[C@@]12CO[C@@]3(O)[C@@H](O)[C@@H]1[C@](C)(CO)CC[C@@H]2O | > 10 | > 10 | > 10 | > 10 | > 10
10 | C=C1C(=O)[C@]23[C@H](O)[C@H]1CC[C@H]2[C@]12CC[C@@H](O)[C@@](C)(COC(C)=O)[C@H]1[C@H](O)[C@]3(O)OC2 | > 10 | > 10 | > 10 | > 10 | > 10
11 | C=C1C(=O)[C@]23[C@H](O)[C@H]1CC[C@H]2[C@]12CC[C@@H](O)[C@@](C)(CO)[C@H]1[C@H](O)[C@]3(O)OC2 | > 10 | > 10 | > 10 | > 10 | > 10
12 | C=C1[C@H]2C[C@@]3([C@@H]1O)[C@@H](C[C@@H]2O)[C@]12CCC[C@@](C)(COC(C)=O)[C@H]1[C@H](O)[C@]3(O)OC2 | > 10 | > 10 | > 10 | > 10 | > 10
13 | COC[C@H]1C(=O)[C@]23[C@H](O)[C@H]1CC[C@H]2[C@@]12CO[C@@]3(O)[C@@H](O)[C@@H]1[C@](C)(CO)CC[C@@H]2O (relative stereo) | > 10 | > 10 | > 10 | > 10 | > 10
14 | C=C1[C@@H](O)[C@]23[C@H](O)[C@H]1C[C@H](OC(C)=O)[C@H]2[C@]12CCCC(C)(C)[C@H]1[C@H](O)[C@]3(O)O[C@@H]2O (relative stereo) | > 10 | > 10 | > 10 | > 10 | > 10
15 | C=C1[C@@H](O)[C@]23[C@H](O)[C@H]1C[C@H](OC(C)=O)[C@H]2[C@]12CCC[C@@](C)(COC(C)=O)[C@H]1[C@H](O)[C@]3(O)O[C@@H]2O (relative stereo) | > 10 | > 10 | > 10 | > 10 | > 10
16 | C=C1C(=O)[C@]23C[C@H]1CC[C@H]2[C@]12CC[C@@H](O)[C@@](C)(COC(C)=O)[C@H]1[C@H](O)[C@]3(O)OC2 | 14.7 | 16 | 14.2 | 12.5 | 3.74
17 | COC[C@@H]1C(=O)[C@]23[C@H](O)[C@H]1[C@@H](O)C[C@H]2[C@]12CCC[C@@](C)(CO)[C@H]1[C@H](O)[C@]3(O)OC2 | > 10 | > 10 | > 10 | > 10 | > 10
18 | COC[C@H]1C(=O)[C@]23C[C@H]1CC[C@H]2[C@@]12CO[C@@]3(O)[C@@H](O)[C@@H]1C(C)(C)CC[C@@H]2OC(C)=O (relative stereo) | 3.2 | 6.8 | 3.99 | 3.77 | 1.23
19 | C=C1C(=O)[C@]23C[C@H]1C[C@H](O)[C@H]2[C@@]12CO[C@@]3(O)C[C@@H]1C(C)(C)CC[C@@H]2O [RABDOCOETSIN C] | 5.29 | 9.62 | 9.04 | 4.24 | 1.8
20 | C=C1C(=O)[C@]23C[C@H]1C[C@@H](OC(C)=O)[C@H]2[C@@]12CO[C@@]3(O)[C@@H](O)[C@@H]1C(C)(C)CC[C@@H]2O | 14.1 | 12.1 | 12.7 | 5.36 | 2.34
21 | C=C1C(=O)[C@]23[C@H](O)[C@H]1[C@@H](O)C[C@H]2[C@]12CCC[C@@](C)(CO)[C@H]1[C@H](O)[C@]3(O)OC2 | > 10 | > 10 | > 10 | > 10 | > 10
22 | C=C1[C@@H]2C[C@H](O)[C@H]3[C@@]45CO[C@@](O)([C@@H](O)[C@@H]4C(C)(C)CC[C@@H]5OC(C)=O)[C@]3(C2)[C@@H]1O | > 10 | > 10 | > 10 | > 10 | > 10
23 | C=C1[C@@H](O)[C@]23[C@H](O)[C@H]1C[C@H](OC(C)=O)[C@H]2[C@]12CCCC(C)(C)[C@H]1[C@H](O)[C@]3(O)O[C@@H]2OCC (relative stereo) | > 10 | > 10 | > 10 | > 10 | > 10
24 | C=C1C(=O)[C@]23[C@H](O)[C@H]1CC[C@H]2[C@@]12CO[C@@]3(O)[C@@H](O)[C@@H]1[C@](C)(COC(C)=O)CC[C@@H]2O | > 10 | > 10 | > 10 | > 10 | > 10
25 | COC[C@@H]1C(=O)[C@]23C[C@H]1CC[C@H]2[C@@]12CO[C@@]3(O)[C@@H](O)[C@@H]1C(C)(C)CC[C@@H]2OC(C)=O (single isomer, unassigned) | > 10 | > 10 | > 10 | > 10 | > 10
26 | CC(=O)O[C@H]1C(=O)[C@@]2(C)[C@H]([C@H](OC(=O)c3ccccc3)[C@]3(O)C[C@H](OC(=O)[C@H](O)[C@@H](NC(=O)c4ccccc4)c4ccccc4)C(C)=C1C3(C)C)[C@]1(OC(C)=O)CO[C@@H]1C[C@@H]2O [PACLITAXEL] | < 0.008 | < 0.008 | < 0.008 | < 0.008 | < 0.008
